Test results taken from the Kinase Knowledgebase extract (Sharma et al. 2016).

What was measured:
[1] = target: CDK2 (UniProt P24941); experiment: Enzyme Assay
[2] = target: CDK2 (UniProt P24941); experiment: Enzyme Assay; remark: listed apart in the source

Row | Structure (SMILES) | IC50 [1] | IC50 [2]
1 | O=C(N[C@H]1CC[C@H](O)CC1)c1n[nH]cc1NC(=O)c1c(F)cccc1F | < 20 µM | 
2 | O=C(Nc1c[nH]nc1C(=O)NCC1CC1)c1cccc2c1OCCO2 | < 20 µM | 
3 | CN1CCC(N2CCC(NC(=O)c3n[nH]cc3NC(=O)c3c(F)cccc3F)CC2)CC1 | < 20 µM | 
4 | CO[C@H]1CC[C@H](NC(=O)c2n[nH]cc2NC(=O)c2c(F)cccc2F)CC1 | < 20 µM | 
5 | O=C(NC1CCN(CC2CC2)CC1)c1n[nH]cc1NC(=O)c1c(F)cccc1F | < 20 µM | 
6 | COc1ccccc1C(=O)Nc1c[nH]nc1C(=O)NC1CCNCC1 | < 20 µM | 
7 | O=C(N[C@H]1CCCNC1)c1n[nH]cc1NC(=O)c1c(F)cccc1F | < 20 µM | 
8 | O=C(Nc1c[nH]nc1C(=O)NC1CCNCC1)c1ccc(OC(F)F)cc1 | < 20 µM | 
9 | O=C(Nc1c[nH]nc1C(=O)NC1CCNCC1)c1cc(-c2ccccc2)cs1 | < 20 µM | 
10 | CN1CCC(NC(=O)c2n[nH]cc2NC(=O)c2c(Cl)cccc2Cl)CC1 | < 20 µM | 
11 | O=C(Nc1c[nH]nc1C(=O)NC1CCNCC1)c1ccc(Cl)cc1 | < 20 µM | 
12 | CC(C)(C)N1CCC(NC(=O)c2n[nH]cc2NC(=O)c2c(F)cccc2F)CC1 | < 20 µM | 
13 | COCCN1CCC(NC(=O)c2n[nH]cc2NC(=O)c2c(F)cccc2F)CC1 | < 20 µM | 
14 | O=C(NC1CCN(c2cccc(Cl)n2)CC1)c1n[nH]cc1NC(=O)c1c(F)cccc1F | < 20 µM | 
15 | CS(=O)(=O)NC[C@H]1CC[C@H](NC(=O)c2n[nH]cc2NC(=O)c2c(F)cccc2F)CC1 | < 20 µM | 
16 | O=C(NC1CCN(CC2CCOC2)CC1)c1n[nH]cc1NC(=O)c1c(F)cccc1F (stereo not drawn) | < 20 µM | 
17 | CN1CCN([C@H]2CC[C@H](NC(=O)c3n[nH]cc3NC(=O)c3c(F)cccc3F)CC2)CC1 | < 20 µM | 
18 | O=C(Nc1c[nH]nc1C(=O)NCC1CC1)c1ccc(N2CCOCC2)cc1Cl | < 20 µM | 
19 | CN1CCN(c2cc(F)cc(C(=O)Nc3c[nH]nc3C(=O)NC3CCCCC3)c2)CC1 | < 20 µM | 
20 | CC(C)(C)C1CCC(NC(=O)c2n[nH]cc2NC(=O)c2ccc(CN3CCCC3)o2)CC1 (stereo not drawn) | < 20 µM | 
21 | O=C(NC1CCC(N2CCSCC2)CC1)c1n[nH]cc1NC(=O)c1c(F)cccc1F (stereo not drawn) | < 20 µM | 
22 | O=C(NC1CCN(CC(F)(F)F)CC1)c1n[nH]cc1NC(=O)c1c(F)cccc1F | < 20 µM | 

Row | Structure (SMILES) | IC50 [1] | IC50 [2]
23 | CN1CCC(NC(=O)c2n[nH]cc2NC(=O)c2cccc3c2OCCO3)CC1 | < 20 µM | 
24 | CN1CCC(NC(=O)c2n[nH]cc2NC(=O)c2ccccc2Cl)CC1 | < 20 µM | 
25 | CC(C)(C)CNC(=O)Nc1c[nH]nc1C(=O)N[C@H]1CC[C@H](O)CC1 | < 20 µM | 
26 | CS(=O)(=O)N1CCC(NC(=O)c2n[nH]cc2NC(=O)c2c(F)cccc2F)CC1 | < 20 µM | 
27 | O=C(Nc1c[nH]nc1C(=O)NC1CCNCC1)c1cc(F)cc(F)c1 | < 20 µM | 
28 | CC(C)(C)C1CCC(NC(=O)c2n[nH]cc2NC(=O)c2ccc(CN3CCOCC3)o2)CC1 (stereo not drawn) | < 20 µM | 
29 | O=C(Nc1c[nH]nc1C(=O)NC1CCNCC1)c1ccccc1N1CCOCC1 | < 20 µM | 
30 | N[C@H]1CC[C@H](NC(=O)c2n[nH]cc2NC(=O)c2c(F)cccc2F)CC1 | < 20 µM | 
31 | O=C(N[C@H]1CC[C@H](O)CC1)c1n[nH]cc1NC(=O)N1CCOCC1 | < 750 µM | 
32 | CC(C)(C)C1CCC(NC(=O)c2n[nH]cc2NC(=O)c2ccc(OC(F)F)cc2)CC1 (stereo not drawn) | < 750 µM | 
33 | O=C(NCc1ccccc1)Nc1c[nH]nc1C(=O)N[C@H]1CC[C@H](O)CC1 | < 750 µM | 
34 | O=C(NC1CCNCC1)c1n[nH]cc1NC(=O)c1c(Cl)cncc1Cl | < 20 µM | 
35 | CC(C)(C)OC(=O)N1CCC(NC(=O)c2n[nH]cc2NC(=O)c2c(F)cc(F)cc2F)CC1 | < 20 µM | 
36 | COc1cccc(F)c1C(=O)Nc1c[nH]nc1C(=O)NC1CCN(C(=O)OC(C)(C)C)CC1 | < 20 µM | 
37 | COc1cccc(F)c1C(=O)Nc1c[nH]nc1C(=O)NC1CCC(C(C)(C)C)CC1 (stereo not drawn) | < 20 µM | 
38 | CN1CCC(NC(=O)Nc2c[nH]nc2C(=O)N[C@H]2CC[C@H](O)CC2)CC1 | < 20 µM | 
39 | O=C(NCc1ccco1)c1n[nH]cc1NC(=O)c1c(F)cccc1F | < 20 µM | 
40 | CC(C)N1CCC(NC(=O)c2n[nH]cc2NC(=O)c2c(F)cccc2F)CC1 | < 20 µM | 
41 | Nc1nnnn1CC(=O)Nc1c[nH]nc1C(=O)Nc1ccc(F)cc1 |  | < 20 µM
42 | Cc1sccc1C(=O)Nc1c[nH]nc1C(=O)Nc1ccc(F)cc1 |  | < 20 µM
43 | CC1CCC(NC(=O)c2n[nH]cc2NC(=O)c2c(F)cccc2F)CC1 (stereo not drawn) | < 20 µM | 
44 | CC(C)(C)C1CCC(NC(=O)c2n[nH]cc2NC(=O)c2ccc(Cl)cc2)CC1 (stereo not drawn) | < 750 µM | 

Row | Structure (SMILES) | IC50 [1] | IC50 [2]
45 | O=C(Nc1c[nH]nc1C(=O)NC1CCNCC1)c1ccccc1OC(F)F | < 20 µM | 
46 | O=C(Nc1ccc(F)cc1)c1n[nH]cc1NC1CCCCC1 |  | < 20 µM
47 | CN(c1c[nH]nc1C(=O)Nc1ccc(F)cc1)C1CCCCC1 |  | < 20 µM
48 | O=C(Nc1c[nH]nc1C(=O)Nc1ccc(F)cc1)c1ccc2cc[nH]c2c1 |  | < 20 µM
49 | O=C(Nc1c[nH]nc1C(=O)Nc1ccc(F)cc1)c1ccco1 |  | < 20 µM
50 | O=C(NC1CCC(CO)CC1)c1n[nH]cc1NC(=O)c1c(F)cccc1F (stereo not drawn) | < 20 µM | 
51 | O=C(N[C@H]1CC[C@H](NC2CCOCC2)CC1)c1n[nH]cc1NC(=O)c1c(F)cccc1F | < 20 µM | 
52 | O=C(Nc1c[nH]nc1C(=O)Nc1ccc(F)cc1)c1ccccn1 |  | < 20 µM
53 | NC(=O)c1n[nH]cc1NC(=O)c1c(F)cccc1F |  | < 20 µM
54 | COC(=O)c1cccc(NC(=O)c2n[nH]cc2NC(=O)c2c(F)cccc2F)c1N |  | < 20 µM
55 | CN1CCC(C(=O)Nc2c[nH]nc2C(=O)NCC2CC2)CC1 | < 20 µM | 
56 | Cc1ccc(C(=O)Nc2c[nH]nc2C(=O)NC2CCN(C)CC2)cc1 | < 20 µM | 
57 | O=C(CCc1ccc(Cl)cc1)Nc1c[nH]nc1C(=O)Nc1ccc(F)cc1 |  | < 20 µM
58 | COc1cccc(F)c1C(=O)Nc1c[nH]nc1C(=O)NC1CCN(C)CC1 | < 20 µM | 
59 | O=C(Nc1c[nH]nc1C(=O)Nc1ccc(F)cc1)c1cccc(F)c1 |  | < 20 µM
60 | O=C(Nc1ccc(F)cc1)c1n[nH]cc1NC(=O)c1c(O)cccc1F |  | < 20 µM
61 | O=C(N[C@H]1CC[C@H](N2CCOCC2)CC1)c1n[nH]cc1NC(=O)c1c(F)cccc1F | < 20 µM | 
62 | O=C(Nc1c[nH]nc1C(=O)Nc1ccc(F)cc1)c1ccccc1[N+](=O)[O-] |  | < 20 µM
63 | CO[C@H]1CC[C@H](NC(=O)c2n[nH]cc2NC(=O)c2c(Cl)cccc2Cl)CC1 | < 20 µM | 
64 | O=C(Nc1c[nH]nc1C(=O)Nc1ccc(F)cc1)c1ccccc1F |  | < 20 µM
65 | O=C(Nc1c[nH]nc1C(=O)NC1CCNCC1)c1ccccc1Br | < 20 µM | 
66 | O=C(NCC1CCCCC1)c1n[nH]cc1NC(=O)c1c(F)cccc1F |  | < 20 µM

Row | Structure (SMILES) | IC50 [1] | IC50 [2]
67 | NC(=O)c1n[nH]cc1-c1ccccc1 |  | < 750 µM
68 | CC(C)(C)OC(=O)N1CCCC(CNC(=O)c2n[nH]cc2NC(=O)c2c(F)cccc2F)C1 (stereo not drawn) |  | < 20 µM
69 | CN1CCC(Oc2ccc(F)cc2NC(=O)c2n[nH]cc2NC(=O)c2c(F)cccc2F)CC1 |  | < 20 µM
70 | O=C(CCc1nnc[nH]1)Nc1c[nH]nc1C(=O)Nc1ccc(F)cc1 |  | < 20 µM
71 | O=C(NCC1CCCNC1)c1n[nH]cc1NC(=O)c1c(F)cccc1F (stereo not drawn) |  | < 20 µM
72 | CN1CCN(CCC(=O)Nc2c[nH]nc2C(=O)Nc2ccc(F)cc2)CC1 |  | < 20 µM
73 | O=C(Nc1ccccc1)c1n[nH]cc1-c1cccc(CO)c1 |  | < 20 µM
74 | O=C(Nc1ccc(F)cc1)c1n[nH]cc1NC(=O)C1(O)CC1 |  | < 20 µM
75 | O=C(Nc1c[nH]nc1C(=O)Nc1ccc(F)cc1)c1ccccc1OCCN1CCCC1 |  | < 20 µM
76 | O=C(NCc1c(Cl)cccc1Cl)c1n[nH]cc1NC(=O)c1c(F)cccc1F |  | < 750 µM
77 | O=C(Nc1c[nH]nc1C(=O)Nc1ccc(F)cc1)c1ccc([N+](=O)[O-])cc1 |  | < 20 µM
78 | O=C(Cc1c[nH]cn1)Nc1c[nH]nc1C(=O)Nc1ccc(F)cc1 |  | < 20 µM
79 | O=C(Nc1ccc(F)cc1)c1n[nH]cc1Nc1cnccn1 |  | < 20 µM
80 | CN1CCN(c2ccc(CNC(=O)c3n[nH]cc3-c3ccc(Cl)cc3Cl)cc2)CC1 |  | < 750 µM
81 | O=C(Nc1ccc(F)cc1)c1n[nH]cc1N1CCOCC1 |  | < 20 µM
82 | O=C(Nc1ccc(F)cc1)c1n[nH]cc1Nc1ccccn1 |  | < 20 µM
83 | CN1CCC(NC(=O)c2n[nH]cc2NC(=O)c2c(F)cccc2F)CC1 |  | < 20 µM
84 | CC(C)(C)C(=O)Nc1c[nH]nc1C(=O)Nc1ccc(F)cc1 |  | < 20 µM
85 | COc1ccccc1C(=O)Nc1c[nH]nc1C(=O)Nc1ccc(F)cc1 |  | < 20 µM
86 | O=C1CCC(C(=O)Nc2c[nH]nc2C(=O)Nc2ccc(F)cc2)N1 (stereo not drawn) |  | < 20 µM
87 | O=C(CO)Nc1c[nH]nc1C(=O)Nc1ccc(F)cc1 |  | < 20 µM
88 | O=C(NCc1ccccc1)c1n[nH]cc1NC(=O)c1c(F)cccc1F |  | < 20 µM

Row | Structure (SMILES) | IC50 [1] | IC50 [2]
89 | CCC(CC)Nc1c[nH]nc1C(=O)Nc1ccc(F)cc1 |  | < 20 µM
90 | Cc1ccccc1C(=O)Nc1c[nH]nc1C(=O)Nc1ccc(F)cc1 |  | < 20 µM
91 | O=C(Nc1ccc(F)cc1)c1n[nH]cc1NC(=O)c1c[nH]c2ccccc12 |  | < 20 µM
92 | O=C(Nc1c[nH]nc1C(=O)Nc1ccc(F)cc1)c1ccoc1 |  | < 20 µM
93 | Cc1onc(-c2ccccc2)c1C(=O)Nc1c[nH]nc1C(=O)Nc1ccc(F)cc1 |  | < 20 µM
94 | O=C(NCc1ccccn1)c1n[nH]cc1NC(=O)c1c(F)cccc1F |  | < 20 µM
95 | O=C(Nc1c[nH]nc1C(=O)Nc1ccc(F)cc1)c1ccc(CO)cc1 |  | < 20 µM
96 | Cc1nc[nH]c1-c1c[nH]nc1C(=O)Nc1ccc(F)cc1 |  | < 20 µM
97 | O=C(NCCN1CCOCC1)c1n[nH]cc1NC(=O)c1c(F)cccc1F |  | < 20 µM
98 | CN1CCN(c2ccc(CNC(=O)c3n[nH]cc3-c3ccccc3)cc2)CC1 |  | < 750 µM
99 | CC(=O)Nc1c(C(=O)Nc2ccc(F)cc2)n[nH]c1C |  | < 20 µM
100 | COc1ccc(NC(=O)c2n[nH]cc2-c2ccccc2)cn1 |  | < 20 µM
101 | Cc1ccc(C)n1-c1c[nH]nc1C(=O)Nc1ccc(F)cc1 |  | < 750 µM
102 | COc1cccc(C(=O)Nc2c[nH]nc2C(=O)Nc2ccc(F)cc2)c1F |  | < 20 µM
103 | O=C(NC1CCN(Cc2ccccc2)CC1)c1n[nH]cc1NC(=O)c1c(F)cccc1F |  | < 20 µM
104 | CC(C)Nc1c[nH]nc1C(=O)Nc1ccc(F)cc1 |  | < 20 µM
105 | CN1CCN(c2ccc(CNC(=O)c3n[nH]cc3NC(=O)c3c(F)cccc3F)cc2)CC1 |  | < 20 µM
106 | O=C(Nc1c[nH]nc1C(=O)Nc1ccc(F)cc1)c1ccc(F)cc1 |  | < 20 µM
107 | O=C(CCN1CCOCC1)Nc1c[nH]nc1C(=O)Nc1ccc(F)cc1 |  | < 20 µM
108 | O=C(NC1CCC(C(=O)O)CC1)c1n[nH]cc1NC(=O)c1c(F)cccc1F (stereo not drawn) |  | < 20 µM
